According to patent US10597388B2, “Pyridazinone herbicides” (FMC CORPORATION, priority 2014, dated 2020):

Assays:
Test in all cases: Test D controlled growth environment herbicide test, pre- and postemergence
Type in all cases: in vivo
[1] = test system: bromegrass, downy (downy bromegrass, Bromus tectorum)
Summary of the method: (§1)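 Rating is visual, 0–100 scale (100 = complete control), made against untreated plants 14–21 d after treatment in controlled growth conditions. Postemergence sprays went onto 1- to 4-leaf plants in peat medium; preemergence sprays onto silt loam after sowing; formulation included a surfactant.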

[2] = test system: wheat, spring (spring wheat, Triticum aestivum)
Summary of the method: as §1

[3] = test system: chamomile (scentless chamomile, Matricaria inodora)
Summary of the method: as §1

[4] = test system: barley, spring (spring barley, Hordeum vulgare)
Summary of the method: as §1

[5] = test system: deadnettle (henbit deadnettle, Lamium amplexicaule)
Summary of the method: as §1

[6] = test system: canarygrass (Phalaris minor)
Summary of the method: as §1

[7] = test system: chickweed (common chickweed, Stellaria media)
Summary of the method: as §1

[8] = test system: foxtail, green (green foxtail, Setaria viridis)
Summary of the method: as §1

[9] = test system: lambsquarters (Chenopodium album)
Summary of the method: as §1

[10] = test system: field poppy (Papaver rhoeas)
Summary of the method: as §1

[11] = test system: galium (catchweed bedstraw, Galium aparine)
Summary of the method: as §1

[12] = test system: kochia (Kochia scoparia)
Summary of the method: as §1

[13] = test system: blackgrass (Alopecurus myosuroides)
Summary of the method: as §1

[14] = test system: oilseed rape (Brassica napus)
Summary of the method: as §1

[15] = Postemergence, 31 g ai/ha, scale 0 to 100 (0 no effect, 100 complete control)
[16] = Postemergence, 125 g ai/ha, visual rating on scale 0 (no effect) to 100 (complete control), 14 to 21 d
[17] = Postemergence, 250 g ai/ha, scale 0 to 100 (0 no effect, 100 complete control)
[18] = Preemergence, 62 g ai/ha, scale 0 to 100 (0 no effect, 100 complete control)
[19] = Preemergence, 125 g ai/ha, scale 0 to 100 (0 no effect, 100 complete control)
[20] = Preemergence, 250 g ai/ha, scale 0 to 100, 0 no effect, 100 complete control
[21] = postemergence, 62 g ai/ha, scale 0 to 100, 0 no effect, 100 complete control

Cc1nn(C)c(=O)c(-c2ccc(F)c3ccccc23)c1O [Compound 41]
Bromegrass, Downy plant response rating [1, 15]: 10
Plant response rating, Bromegrass, Downy [1, 16]: 35
Plant response rating, Bromegrass, Downy [1, 17]: 45
Plant response rating (scale of 0 to 100), Bromegrass, Downy ([1]; Preemergence, 31 g ai/ha): 50
Plant response rating, Bromegrass, Downy [1, 18]: 55
Plant response rating, Bromegrass, Downy [1, 19]: 70
Plant response rating, Bromegrass, Downy [1, 20]: 80
Plant response rating, Bromegrass, Downy [1, 21]: 20
Wheat, Spring plant response rating [2, 15]: 15
Plant response rating, Wheat, Spring [2, 16]: 30
Plant response rating, Wheat, Spring [2, 17]: 40
Plant response rating (scale of 0 to 100), Wheat, Spring ([2]; Preemergence, 31 g ai/ha): 40
Plant response rating, Wheat, Spring [2, 18]: 55
Plant response rating, Wheat, Spring [2, 19]: 70
Plant response rating, Wheat, Spring [2, 20]: 85
Plant response rating, Wheat, Spring [2, 21]: 20
Chamomile plant response rating [3, 15]: 75
Plant response rating, Chamomile [3, 16]: 80
Plant response rating, Chamomile [3, 17]: 100
Plant response rating, Chamomile [3, 21]: 75
Plant response rating, Barley, Spring [4, 15]: 0
Plant response rating, Barley, Spring [4, 16]: 10
Plant response rating, Barley, Spring [4, 17]: 20
Plant response rating (scale of 0 to 100), Barley, Spring ([4]; Preemergence, 31 g ai/ha): 0
Plant response rating, Barley, Spring [4, 18]: 0
Plant response rating, Barley, Spring [4, 19]: 30
Barley, Spring plant response rating [4, 20]: 60
Plant response rating, Barley, Spring [4, 21]: 5
Deadnettle plant response rating [5, 15]: 85
Plant response rating, Deadnettle [5, 16]: 80
Plant response rating, Deadnettle [5, 17]: 100
Plant response rating (scale of 0 to 100), Deadnettle ([5]; Preemergence, 31 g ai/ha): 35
Plant response rating, Deadnettle [5, 18]: 90
Plant response rating, Deadnettle [5, 19]: 100
Plant response rating, Deadnettle [5, 20]: 100
Plant response rating, Deadnettle [5, 21]: 100
Canarygrass plant response rating [6, 15]: 55
Plant response rating, Canarygrass [6, 16]: 80
Plant response rating, Canarygrass [6, 17]: 80
Plant response rating (scale of 0 to 100), Canarygrass ([6]; Preemergence, 31 g ai/ha): 90
Plant response rating, Canarygrass [6, 18]: 90
Plant response rating, Canarygrass [6, 19]: 90
Plant response rating, Canarygrass [6, 20]: 95
Plant response rating, Canarygrass [6, 21]: 70
Chickweed plant response rating [7, 15]: 98
Plant response rating, Chickweed [7, 16]: 95
Plant response rating, Chickweed [7, 17]: 100
Plant response rating (scale of 0 to 100), Chickweed ([7]; Preemergence, 31 g ai/ha): 90
Plant response rating, Chickweed [7, 18]: 95
Plant response rating, Chickweed [7, 19]: 95
Plant response rating, Chickweed [7, 20]: 95
Plant response rating, Chickweed [7, 21]: 98
Foxtail, Green plant response rating [8, 15]: 45
Plant response rating, Foxtail, Green [8, 16]: 50
Plant response rating, Foxtail, Green [8, 17]: 65
Plant response rating (scale of 0 to 100), Foxtail, Green ([8]; Preemergence, 31 g ai/ha): 45
Plant response rating, Foxtail, Green [8, 18]: 80
Plant response rating, Foxtail, Green [8, 19]: 100
Plant response rating, Foxtail, Green [8, 20]: 100
Plant response rating, Foxtail, Green [8, 21]: 55
Lambsquarters plant response rating [9, 15]: 70
Plant response rating, Lambsquarters [9, 16]: 75
Plant response rating, Lambsquarters [9, 17]: 85
Plant response rating (scale of 0 to 100), Lambsquarters ([9]; Preemergence, 31 g ai/ha): 25
Plant response rating, Lambsquarters [9, 18]: 100
Plant response rating, Lambsquarters [9, 19]: 100
Plant response rating, Lambsquarters [9, 20]: 100
Plant response rating, Lambsquarters [9, 21]: 65
Field Poppy plant response rating [10, 15]: 55
Plant response rating, Field Poppy [10, 16]: 75
Plant response rating, Field Poppy [10, 17]: 95
Plant response rating (scale of 0 to 100), Field Poppy ([10]; Preemergence, 31 g ai/ha): 95
Plant response rating, Field Poppy [10, 18]: 95
Plant response rating, Field Poppy [10, 20]: 95
Plant response rating, Field Poppy [10, 21]: 80
Galium plant response rating [11, 15]: 100
Plant response rating, Galium [11, 16]: 100
Plant response rating, Galium [11, 17]: 100
Plant response rating (scale of 0 to 100), Galium ([11]; Preemergence, 31 g ai/ha): 75
Plant response rating, Galium [11, 18]: 85
Plant response rating, Galium [11, 19]: 95
Plant response rating, Galium [11, 20]: 100
Plant response rating, Galium [11, 21]: 100
Kochia plant response rating [12, 15]: 85
Plant response rating, Kochia [12, 16]: 85
Plant response rating, Kochia [12, 17]: 100
Plant response rating (scale of 0 to 100), Kochia ([12]; Preemergence, 31 g ai/ha): 80
Plant response rating, Kochia [12, 18]: 75
Plant response rating, Kochia [12, 19]: 80
Plant response rating, Kochia [12, 20]: 100
Plant response rating, Kochia [12, 21]: 95
Blackgrass plant response rating [13, 15]: 55
Plant response rating, Blackgrass [13, 16]: 70
Plant response rating, Blackgrass [13, 17]: 75
Plant response rating (scale of 0 to 100), Blackgrass ([13]; Preemergence, 31 g ai/ha): 70
Plant response rating, Blackgrass [13, 18]: 75
Plant response rating, Blackgrass [13, 19]: 80
Blackgrass plant response rating [13, 20]: 80
Plant response rating, Blackgrass [13, 21]: 65
Oilseed Rape plant response rating [14, 15]: 0
Plant response rating, Oilseed Rape [14, 16]: 25
Plant response rating, Oilseed Rape [14, 17]: 55
Plant response rating (scale of 0 to 100), Oilseed Rape ([14]; Preemergence, 31 g ai/ha): 0
Plant response rating, Oilseed Rape [14, 18]: 5
Plant response rating, Oilseed Rape [14, 19]: 25
Plant response rating, Oilseed Rape [14, 20]: 15
Plant response rating, Oilseed Rape [14, 21]: 5
